Reference: patent US11180479B2 (HAPLOGEN GmbH, priority 2017, dated 2021)

Key:
[1] = target: T1, PLA2G16 (Homo sapiens, UniProt P53816); assay: Enzyme activity assay for PLA2G16 (Red/Green BODIPY PC-A2 fluorescence); assay type: biochemical; conditions: His-tagged PLA2G16, 4 min pre-incubation, compound 2 nM to 50 μM; first symbol in parentheses
T1 construct: Hexa-His (N); made in house; host or cells: E. coli BL21(DE3)
T1 sequence (P53816 1-162): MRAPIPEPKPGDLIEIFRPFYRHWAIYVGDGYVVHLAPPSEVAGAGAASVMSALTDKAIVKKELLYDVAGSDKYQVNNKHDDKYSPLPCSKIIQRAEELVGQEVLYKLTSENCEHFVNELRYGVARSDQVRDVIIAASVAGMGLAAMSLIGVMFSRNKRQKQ
Source text: Purification and Enzyme Activity Assay for PLA2G16
A cDNA for PLA2G16 (NM_007069) was custom-synthesized by Genscript (Piscataway, USA) and inserted into a pET-based bacterial expression vector [Moffatt, B. A. and Studier, F. W. (1986) J. Mol. Biol. 189, 113-130; Rosenberg, A. H., Lade, B. N., Chui, D., Lin, S., Dunn, J. J., and Studier, F. W. (1987) Gene 56, 125-135], enabling the expression of N-terminally Hexa-His-tagged PLA2G16. E. coli BL21(DE3) (Agilent) were transformed with pET-His-PLA2G16 according to the manufacturer's instructions and plated on Carbenicillin-containing agar plates (final concentration: 100 μg/mL). A single clone was inoculated in 100 mL LB medium supplemented with 100 μg/mL Carbenicillin and the inoculated culture was grown at 37° C. overnight in a rotary shaker. On the next day, the bacterial culture was diluted in LB medium supplemented with 100 μg/mL Carbenicillin (30 mL overnight culture in 800 mL total culture volume). Bacteria were grown at 37° C. until the OD600 reached 0.6. Gene expression was induced by addition of 1 mM isopropyl-β-D-thiogalactopyranosid (IPTG) for 2 h at 18° C. Subsequently, bacteria were harvested by centrifugation (15 min; 10,000×g; 4° C.) and frozen at −80° C. The bacterial pellet was resuspended in Buffer A (50 mM Tris/HCl pH 7.5, 500 mM NaCl, 5% glycerol, 5 mM β-Mercaptoethanol and 1 mM PMSF) and lysed by addition of 1 mg/mL lysozyme (Sigma Aldrich) and 100 μg/mL DNasel-(Roche). The sample was incubated at 30° C. for 30 min to allow lysis to occur. Then, the lysate was cleared by centrifugation (15,000×g, 15 min, 4° C.) and incubated with 1.5 mL Ni-NTA agarose suspension (Qiagen) for 60 min at 4° C. The Ni-NTA agarose was washed with 10 mL Buffer A. Bound protein was eluted by applying a manual gradient of Buffer A supplemented with increasing concentrations of imidazole (Sigma Aldrich; 25/50/75/100/250 mM). Purified fractions were analyzed by SDS-PAGE followed by Coomassie staining to assess the purity.
Activity of the protein was assessed as follows:
Red/Green BODIPY® PC-A2 (Invitrogen, 1 mM in DMSO) was mixed with equal volumes of 1,2-Dioleoyl-sn-glycero-3-phosphocholine (DOPC; Sigma Aldrich, 10 mM in Ethanol) and 1,2-Dioleoyl-sn-glycero-3-phospho-rac-(1-glycerol) (DOPG; Sigma Aldrich, 10 mM in Ethanol) and 0.5 volumes of Cholesterol (CHOL; Sigma Aldrich, 10 mM in Ethanol) and vortexed for 5 s. The mixture (Red/Green BODIPY® PC-A2/DOPC/DOPG/CHOL) was diluted 1:91.4 in activity assay buffer (50 mM Tris/HCl pH 8.5, 100 mM NaCl) using a small-orifice pipette tip under constant vortexing. In the following, this preparation will be referred to as the “substrate solution”.
In order to evaluate their inhibitory potential, compounds were dissolved at 10 mM concentration in DMSO and directly spotted into assay plates (Corning, Cat. No. 3576) using acoustic liquid transfer (Labcyte Echo 525). Each compound was spotted at increasing concentrations, ranging from 2 nM to 50 μM (concentration in the final assay volume). 50 μl of PLA2G16 enzyme solution (diluted in activity buffer, supplemented with 5 mM L-Glutathione; Sigma Aldrich) was pre-incubated with compounds for 4 min., followed by addition of 50 μl of substrate solution. Fluorescence was recorded immediately after substrate addition for a total time of 10 min. using a SpectraMax M5 multimode reader (Excitation wavelength: 480 nm, emission wavelength: 530 nm). The relative increase of fluorescence over time is referred to as the enzyme activity. Half-maximal inhibitory concentrations (IC50) were derived by non-linear regression analysis using the drc package in R (R Development. Core Team, 2005).

[2] = tested on: picornaviruses (CVB1, HRV-A2, HRV-A23, EV-68); assay: Anti-picornavirus cytopathic effect (CPE) reduction assay on HeLa H1 cells; assay type: cell-based; conditions: 48 h, category from averaging EC50 values of four picornaviruses (CVB1, HRV-A2, HRV-A23, EV68), second symbol in parentheses
Description: Anti-Picornavirus Assay in Mammalian Cell Culture
The antiviral activity of selected compounds was tested using a cytopathic effect (CPE) reduction assay on HeLa H1 cells (ATCC CRL-1958). Briefly, cells were seeded in 96-well dishes (2×10^4 cells/well) in DMEM medium (Life technologies) supplemented with 10% FBS and PenStrep solution (100 U/mL Penicillin and 100 μg/mL streptomycin) and incubated at 37° C., 5% CO2 overnight. The next day, cells were pre-treated with serial dilutions of the compound in DMEM medium supplemented with 2% FBS and PenStrep for 2 h at 37° C., 5% CO2. Next, cells were infected with virus (CVB1, HRV-A2, HRV-A23, EV-68) at an multiplicity of infection (MOI) which results in a complete virus-induced CPE within 2 days in control wells (infected and vehicle-treated). After 48 h, supernatants were aspirated and 50 μl/well of CellTiterBlue reagent (Promega) diluted 1:5 in DMEM+2% FBS, was added to the cells. Plates were returned to the incubator and allowed to develop for 1.5 h. After that, plates were equilibrated to RT and subsequently, fluorescence was recorded (Excitation wavelength: 560 nm; emission wavelength: 590 nm) using a SpectraMax M5 multimode plate reader. Viability of cells was calculated according to the formula: V=(RFUCpd−RFUVeh/(RFUM−RFUVeh), where RFUCpd refers to infected and compound-treated cells, RFUVeh to infected and vehicle-treated cells and RFUM to uninfected and vehicle treated cells. Half-maximal effective concentrations (EC50) were calculated by non-linear regression analysis using the drc package in R (R Development. Core Team, 2005). EC50 categories as presented in Table 2 were calculated by averaging the EC50 values from four picornaviruses (CVB1, HRV-A2, HRV-A23, EV68).

Row | Compound | IC50 [1] | EC50 [2]
1 | CC(C)NC(=O)C(=O)[C@H]1CNC(=O)[C@@H]1c1ccccc1 (racemic) [FP-78, Rac-2-oxo-2-[(3R,4S)-5-oxo-4-phenylpyrrolidin-3-yl]-N-(propan-2-yl)acetamide] | < 1000 nM | 1000 to 10000 nM
2 | O=C(NC1CC1)C(=O)[C@H]1CN(c2cncnc2)C(=O)[C@@H]1Cc1ccccc1 (racemic) [FP-54, Rac-2-[(3R,4R)-4-benzyl-5-oxo-1-(pyrimidin-5-yl)pyrrolidin-3-yl]-N-cyclopropyl-2-oxoacetamide] | < 1000 nM | < 1000 nM
3 | CC(F)(F)CNC(=O)C(=O)[C@H]1CNC(=O)[C@@H]1C1CCCCC1 (racemic) [FP-12, Rac-2-[(3R,4R)-4-cyclohexyl-5-oxopyrrolidin-3-yl]-N-(2,2-difluoropropyl)-2-oxoacetamide] | < 1000 nM | < 1000 nM
4 | CC(C)CNC(=O)C(=O)[C@H]1CN(CC(N)=O)C(=O)[C@@H]1Cc1ccccc1 (racemic) [FP-40, Rac-2-[(3R,4R)-4-benzyl-1-(carbamoylmethyl)-5-oxopyrrolidin-3-yl]-N-(2-methylpropyl)-2-oxoacetamide] | < 1000 nM | < 1000 nM
5 | CCNC(=O)C(=O)[C@H]1CN(c2ncccn2)C(=O)[C@@H]1Cc1ccccc1 (racemic) [FP-59, Rac-2-[(3R,4R)-4-benzyl-5-oxo-1-(pyrimidin-2-yl)pyrrolidin-3-yl]-N-ethyl-2-oxo-acetamide] | < 1000 nM | 1000 to 10000 nM
6 | Cn1cnc(CN2C[C@H](C(=O)C(=O)NC3CC3)[C@@H](Cc3ccc(F)cc3)C2=O)n1 (racemic) [FP-51, Rac-N-cyclopropyl-2-[(3R,4R)-4-[(4-fluorophenyl)methyl]-1-[(1-methyl-1H-1,2,4-triazol-3-yl)methyl]-5-oxopyrrolidin-3-yl]-2-oxoacetamide] | < 1000 nM | 1000 to 10000 nM
7 | Cn1ncnc1CN1C[C@H](C(=O)C(=O)NC2CC2)[C@@H](Cc2ccccc2)C1=O (racemic) [FP-42, Rac-2-[(3R,4R)-4-benzyl-1-[(1-methyl-1H-1,2,4-triazol-5-yl)methyl]-5-oxopyrrolidin-3-yl]-N-cyclopropyl-2-oxoacetamide] | < 1000 nM | 1000 to 10000 nM
8 | O=C(NC1CC1)C(=O)[C@H]1CN(Cc2ccncn2)C(=O)[C@@H]1Cc1ccccc1 (racemic) [FP-37, Rac-2-[(3R,4R)-4-benzyl-5-oxo-1-[(pyrimidin-4-yl)methyl]pyrrolidin-3-yl]-N-cyclopropyl-2-oxoacetamide] | < 1000 nM | 1000 to 10000 nM
9 | Cc1cc(CN2C[C@H](C(=O)C(=O)NC3CC3)[C@@H](c3ccccc3)C2=O)no1 (racemic) [FP-100, Rac-N-cyclopropyl-2-[(3R,4S)-1-[(5-methyl-1,2-oxazol-3-yl)methyl]-5-oxo-4-phenylpyrrolidin-3-yl]-2-oxoacetamide] | < 1000 nM | 1000 to 10000 nM
10 | O=C(NC1CC1)C(=O)[C@H]1CN(c2cccc(OCc3ccccc3)n2)C(=O)[C@@H]1Cc1ccccc1 (racemic) [FP-69, Rac-2-[(3R,4R)-4-benzyl-1-[6-(benzyloxy)pyridin-2-yl]-5-oxopyrrolidin-3-yl]-N-cyclopropyl-2-oxoacetamide] | < 1000 nM | < 1000 nM
11 | O=C(NC1CC1)C(=O)[C@H]1CN(Cc2ccccc2)C(=O)[C@@H]1c1ccccc1 (racemic) [FP-99, Rac-2-[(3R,4S)-1-benzyl-5-oxo-4-phenylpyrrolidin-3-yl]-N-cyclopropyl-2-oxoacetamide] | < 1000 nM | 1000 to 10000 nM

Continued, values first:

Row | IC50 [1] | EC50 [2] | Compound
12 | < 1000 nM | < 1000 nM | O=C(NCC1CC1)C(=O)[C@H]1CNC(=O)[C@@H]1Cc1ccccc1 (single isomer, unassigned) [FP-81]
13 | < 1000 nM | < 1000 nM | CCNC(=O)C(=O)[C@H]1CNC(=O)[C@@H]1Cc1ccccc1 (racemic) [FP-3, Rac-2-[(3R,4R)-4-benzyl-5-oxopyrrolidin-3-yl]-N-ethyl-2-oxoacetamide]
14 | < 1000 nM | 1000 to 10000 nM | O=C(NOC1CCCCC1)C(=O)[C@H]1CNC(=O)[C@@H]1Cc1ccccc1 (racemic) [FP-9, Rac-2-[(3R,4R)-4-benzyl-5-oxopyrrolidin-3-yl]-N-(cyclohexyloxy)-2-oxoacetamide]
15 | < 1000 nM | 1000 to 10000 nM | O=C(NC1CC1)C(=O)[C@H]1CNC(=O)[C@@H]1c1ccccc1 (racemic) [FP-14, Rac-N-cyclopropyl-2-oxo-2-[(3R,4S)-5-oxo-4-phenylpyrrolidin-3-yl]acetamide]
16 | < 1000 nM | 1000 to 10000 nM | COCCN1C[C@H](C(=O)C(=O)NC2CC2)[C@@H](Cc2ccccc2)C1=O (racemic) [FP-39, Rac-2-[(3R,4R)-4-benzyl-1-(2-methoxyethyl)-5-oxopyrrolidin-3-yl]-N-cyclopropyl-2-oxoacetamide]
17 | < 1000 nM | < 1000 nM | CCNC(=O)C(=O)[C@H]1CN(CC(F)F)C(=O)[C@@H]1Cc1ccccc1 (racemic) [FP-50, Rac-2-[(3R,4R)-4-benzyl-1-(2,2-difluoroethyl)-5-oxopyrrolidin-3-yl]-N-ethyl-2-oxoacetamide]
18 | < 1000 nM | < 1000 nM | O=C(NC1CCC1)C(=O)[C@H]1CNC(=O)[C@@H]1c1ccccc1 (racemic) [FP-19, Rac-N-cyclobutyl-2-oxo-2-[(3R,4S)-5-oxo-4-phenylpyrrolidin-3-yl]acetamide]
19 | < 1000 nM | < 1000 nM | O=C(NC1CCCC1)C(=O)[C@H]1CNC(=O)[C@@H]1c1ccccc1 (racemic) [FP-79, Rac-N-cyclopentyl-2-oxo-2-[(3R,4S)-5-oxo-4-phenylpyrrolidin-3-yl]acetamide]
20 | < 1000 nM | 1000 to 10000 nM | CC(F)(F)CNC(=O)C(=O)[C@H]1CNC(=O)[C@@H]1c1ccccc1 (racemic) [FP-11, Rac-N-(2,2-difluoropropyl)-2-oxo-2-[(3R,4S)-5-oxo-4-phenylpyrrolidin-3-yl]acetamide]
